As usually defined, the IC50 is the point on the concentration scale where inhibition reaches its midpoint. What is called inhibition is the relative decrease from the control value, in per cent.

The record followed here is patent US5677346A, “Treating urinary incontinence using (S)-desethyloxybutynin” (Sepracor, Inc., priority 1995, dated 1997).

Assay [1] concerns the target Ca channel (T + L, verapamil site). Description: Binding to calcium channel, verapamil site ([3H]D 888, rat cerebral cortex). The settings on record: for percent inhibition of specific radioligand binding, Calcium (verapamil): Table 8, 10^-5 M.
The test system of assay [2] is guinea pig bladder smooth muscle strips. Nature of the assay: Potassium-induced contraction of isolated bladder strips (spasmolytic activity).
In assay [3] the test system is Ca channel (T + L, diltiazem site). Format: binding, rat. As to conditions: for percent inhibition of specific radioligand binding, Calcium (diltiazem): Table 8, 10^-5 M.
Assay [4] concerns the target T1, human recombinant M4 muscarinic receptor (Homo sapiens, UniProt P08173).
T1 construct: made in house; host or cells: SF9 insect cells infected with baculovirus (membranes)
T1 sequence (P08173 1-479): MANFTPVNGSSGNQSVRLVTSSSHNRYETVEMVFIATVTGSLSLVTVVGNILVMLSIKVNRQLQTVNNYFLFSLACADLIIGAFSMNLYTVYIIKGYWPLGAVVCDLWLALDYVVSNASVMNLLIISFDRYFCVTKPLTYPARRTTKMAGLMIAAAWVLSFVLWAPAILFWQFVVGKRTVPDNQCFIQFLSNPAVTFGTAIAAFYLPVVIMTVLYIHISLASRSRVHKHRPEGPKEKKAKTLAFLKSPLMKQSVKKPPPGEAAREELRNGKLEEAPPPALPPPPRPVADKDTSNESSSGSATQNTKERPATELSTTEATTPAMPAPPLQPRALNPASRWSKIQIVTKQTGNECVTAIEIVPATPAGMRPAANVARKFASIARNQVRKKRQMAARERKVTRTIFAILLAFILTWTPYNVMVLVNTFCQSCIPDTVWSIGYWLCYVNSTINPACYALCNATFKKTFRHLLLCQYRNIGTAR
Nature of the assay: biochemical. Format: binding. As to conditions: for inhibition at 10 µM: read-out: percent inhibition of specific radioligand binding M4H 10^-5 M; for inhibition at 0.1 µM: read-out: percent inhibition of specific radioligand binding M4H 10^-7 M; for inhibition at 0.001 µM: read-out: percent inhibition of specific radioligand binding M4H 10^-9 M.

For assay [5], the target named is T2, human recombinant M2 muscarinic receptor (Homo sapiens, UniProt P08172).
T2 construct: made in house; host or cells: SF9 insect cells infected with baculovirus (membranes)
T2 sequence (P08172 1-466): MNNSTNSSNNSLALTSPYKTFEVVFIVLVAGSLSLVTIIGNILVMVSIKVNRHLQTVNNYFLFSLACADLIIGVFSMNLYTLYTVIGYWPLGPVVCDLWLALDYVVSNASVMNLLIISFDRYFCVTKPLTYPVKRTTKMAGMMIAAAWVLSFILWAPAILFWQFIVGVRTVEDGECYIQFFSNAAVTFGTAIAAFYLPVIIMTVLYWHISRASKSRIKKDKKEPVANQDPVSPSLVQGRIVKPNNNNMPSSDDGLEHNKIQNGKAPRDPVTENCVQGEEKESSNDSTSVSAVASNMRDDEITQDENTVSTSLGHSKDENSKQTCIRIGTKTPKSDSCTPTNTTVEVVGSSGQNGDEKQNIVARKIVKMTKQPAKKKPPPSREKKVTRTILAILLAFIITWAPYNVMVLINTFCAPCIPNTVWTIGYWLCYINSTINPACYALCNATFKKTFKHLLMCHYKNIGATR
Description: biochemical. As to conditions: for inhibition at 10 µM: read-out: percent inhibition of specific radioligand binding M2H 10^-5 M; for inhibition at 0.1 µM: read-out: percent inhibition of specific radioligand binding M2H 10^-7 M. Format: binding.

In assay [6] the target is T3, bladder muscarinic receptors (guinea pig bladder smooth muscle strips) (Cavia porcellus, UniProt H0W1Z3).
T3 construct: isolated strips of guinea pig bladder smooth muscle; from tissue; host or cells: urinary bladder strips of male Hartley guinea pigs
Nature of the assay: Carbachol-induced contraction of isolated bladder strips (antimuscarinic activity). As to conditions: for Slope (Schild regression): Table 9, mean ± SE.

Assay [7] concerns calcium channel (diltiazem and verapamil sites). Nature of the assay: Binding at calcium channels, overall result. On the set-up: species or system rat. As to conditions: 10^-5 M.
Assay [8] has as its system human muscarinic receptor subtypes M1-M4. Nature of the assay: Binding to human muscarinic receptor subtypes M1-M4, overall result.
The mark [9] stands for this setting: Table 10, 137.7 mM K+, 60 min exposure, n = 3, * significantly different from untreated (< 0.01).

T3 sequence (H0W1Z3 1-590): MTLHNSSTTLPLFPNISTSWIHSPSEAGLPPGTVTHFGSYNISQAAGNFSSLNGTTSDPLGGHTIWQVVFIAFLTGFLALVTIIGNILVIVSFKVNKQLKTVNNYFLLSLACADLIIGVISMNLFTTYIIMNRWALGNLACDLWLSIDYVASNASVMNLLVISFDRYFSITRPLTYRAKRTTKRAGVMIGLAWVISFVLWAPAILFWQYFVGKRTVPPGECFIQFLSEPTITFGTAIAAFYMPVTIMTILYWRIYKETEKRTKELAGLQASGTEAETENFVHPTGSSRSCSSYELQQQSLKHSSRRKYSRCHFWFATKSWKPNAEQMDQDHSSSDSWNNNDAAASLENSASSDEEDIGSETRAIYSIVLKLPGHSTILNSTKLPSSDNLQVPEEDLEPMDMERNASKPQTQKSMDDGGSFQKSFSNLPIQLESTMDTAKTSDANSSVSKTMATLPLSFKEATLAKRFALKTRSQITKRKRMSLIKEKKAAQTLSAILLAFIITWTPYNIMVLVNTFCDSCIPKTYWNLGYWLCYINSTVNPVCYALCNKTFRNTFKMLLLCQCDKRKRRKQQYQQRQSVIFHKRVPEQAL

Take `COc1ccc(CCN(C)CCCC(C#N)(c2cc(OC)c(OC)c(OC)c2)C(C)C)cc1OC` (racemic) [D600, reference compound]: the IC50 in assay [1] (Table 5, reference compound, 8 concentrations, read-out: Ref. Compound IC50, Calcium (verapamil)) is 36.4 nM.
On to `CCN(CC)CC#CCOC(=O)[C@](O)(c1ccccc1)C1CCCCC1` [R-OXY, reference compound], for which the “Mean % pretreatment ± SE (magnitude of contraction induced by 137.7 mM K+ after exposure to compound / before)” value in assay [2] (setting [9]) stood at 32 ± 8%.
In the case of `COc1ccc([C@@H]2Sc3ccccc3N(CCN(C)C)C(=O)[C@@H]2OC(C)=O)cc1` [diltiazem, reference compound], in assay [3] (Table 5, reference compound, 8 concentrations, read-out: Ref. Compound IC50, Calcium (diltiazem)), the IC50 is 55.8 nM.
For `CCN(CC)CC#CCOC(=O)C(O)(c1ccccc1)C1CCCCC1` (racemic) [RS-OXY, 4-(diethylamino)-2-butynyl α-cyclohexyl-α-hydroxybenzeneacetate, reference compound], the “Mean % pretreatment ± SE (magnitude of contraction induced by 137.7 mM K+ after exposure to compound / before)” value in assay [2] (setting [9]) is 20 ± 1%.
Turning to `CCNCC#CCOC(=O)C(O)(c1ccccc1)C1CCCCC1.Cl` (racemic) [RS-DEO, 4-(Ethylamino)-2-butynyl α-cyclohexyl-α-hydroxybenzeneacetate hydrochloride salt], in assay [4], the inhibition at 10 µM came to 95%, the inhibition at 0.1 µM turned out to be 99% and the inhibition at 0.001 µM amounted to 34%. Moreover, the “percent inhibition of specific radioligand binding, Calcium (verapamil)” value (“percent inhibition … Calcium (verapamil)” for short) in assay [1] was 89%. Also, in assay [2] (setting [9]), the “Mean % pretreatment ± SE (magnitude of contraction induced by 137.7 mM K+ after exposure to compound / before)” value amounted to 47 ± 8%. For the same compound, in assay [5], the IC50 was 7 nM, the inhibition at 10 µM turned out to be 99% and the inhibition at 0.1 µM is 94%. Also, the “percent inhibition of specific radioligand binding, Calcium (diltiazem)” value (shortened to “percent inhibition … Calcium (diltiazem)”) in assay [3] worked out at 88%. Moreover, in assay [6], the Kb is 2.82 nM and the “Slope (Schild regression)” value amounted to 1.35 ± 0.25.
In the case of `CCNCC#CCOC(=O)[C@](O)(c1ccccc1)C1CCCCC1.Cl` [R-DEO, 4-(Ethylamino)-2-butynyl (R)-α-cyclohexyl-α-hydroxybenzeneacetate hydrochloride salt], in assay [4], the inhibition at 10 µM was 99%, the inhibition at 0.1 µM turned out to be 100% and the inhibition at 0.001 µM was found to be 58%. Moreover, the “percent inhibition … Calcium (verapamil)” value in assay [1] is recorded as 96%. In addition, the “Mean % pretreatment ± SE (magnitude of contraction induced by 137.7 mM K+ after exposure to compound / before)” value in assay [2] (setting [9]) is on record as 36 ± 5%. Also, in assay [5], the IC50 was found to be 14.7 nM, the inhibition at 10 µM came to 102% and the inhibition at 0.1 µM was 97%. Further, the inhibition at 0.001 µM in assay [5] (read-out: percent inhibition of specific radioligand binding M2H 10^-9 M) was 21%. In addition, the “percent inhibition … Calcium (diltiazem)” value in assay [3] came to 86%. Also, in assay [6], the Kb is 0.912 nM and the “Slope (Schild regression)” value is 1.16 ± 0.11.
Turning to `CCN(CC)CC#CCOC(=O)[C@@](O)(c1ccccc1)C1CCCCC1` [S-OXY, 4-(diethylamino)-2-butynyl α-cyclohexyl-α-hydroxybenzeneacetate], in assay [2] (guinea pig, bladder strips, 60 min), the “Mean % pretreatment ± SE (magnitude of contraction induced by 137.7 mM K+ after exposure to compound / before)” value was determined as 26 ± 9%.
In the case of `CCNCC#CCOC(=O)[C@@](O)(c1ccccc1)C1CCCCC1.Cl` [S-DEO, 4-(Ethylamino)-2-butynyl (S)-α-cyclohexyl-α-hydroxybenzeneacetate hydrochloride salt], in assay [4], the inhibition at 10 µM is 99% and the inhibition at 0.1 µM is 43%. The “percent inhibition … Calcium (verapamil)” value in assay [1] is 76%. In addition, in assay [5], the IC50 worked out at 177 nM and the inhibition at 0.1 µM is 36%. The “percent inhibition … Calcium (diltiazem)” value in assay [3] amounted to 72%. In addition, in assay [7], the “calcium entry blocking activity (in words)” value was “calcium entry blocking activity similar to that of R- and racemic DEO”. The “affinity for muscarinic receptor subtypes (in words)” value in assay [8] is “less affinity for muscarinic receptor subtypes than either R- or racemic DEO”. Further, in assay [6], the Kb is 49 nM and the “Slope (Schild regression)” value came to 0.87 ± 0.11. In addition, in assay [6] (carbachol-induced contraction), the “antagonism of bladder muscarinic receptors (in words)” value is “less potent antagonists of bladder muscarinic receptors than are R- and racemic OXY and R- and racemic DEO”.
